Results reported in patent publication US6825209B2, “Compounds having unique CB1 receptor binding selectivity and methods for their production and use” (Research Triangle Institute, priority 2002, dated 2004).
Read-outs that look alike come from different tables or passages of the source.

Columns and labels:
CB1 receptor = target: T1, CB1 receptor (Rattus norvegicus, UniProt P20272); assay: Radioligand displacement in whole rat brain (CB1) membrane preparations; format: binding; settings: Table 4, parallel synthesis analogs; for Ki: n = 1, concentration assumes 100% yield; for Max. Disp. %, 3H-CP55940 / Max. Disp. %, 3H-SR141716A / Max. Disp. %, 3H-WIN55212-2: n = 1
T1 construct: Whole rat brains or dissected regions from live CD rats; tissue Charles River or Pel-Freez Biologicals; host or cells: whole rat brain (CD rats), P2 membrane
Excerpt: CB1 receptor affinity in rat brain.
Methods—membrane preparation from brain. The methods for tissue preparation are essentially those described by Devane et al. (1988) as modified by Compton et al. (1993) and later by Thomas et al. (1998). Whole rat brains or dissected regions from live CD rats from Charles River or Pel-Freez Biologicals (Rogers, Ark.), or human brain sections obtained from the National Disease Research Institute, were allowed to thaw to room temperature on ice. Both whole brain and dissected brain regions were used because different brain regions may express different cannabinoid receptor subtypes (Skaper et al., 1996; Thomas et al., 1998). The tissue was homogenized with a Kontes Potter-Elvehjem glass-Teflon grinding system (Fisher Scientific, Springfield, N.J.) in buffer 1 (320 mM sucrose, 2 mM EDTA, 5 mM MgCl2. The homogenate was centrifuged at 1600 g for 10 min. The supernatant was saved and combined with the two subsequent supernatants obtained from washing and 1600 g centrifugation of the P1 pellet. The combined supernatant fractions were then centrifuged at 39,000 g for 15 min. The P2 pellet was resuspended in 50 mL of buffer 2 (50 mM Tris.HCl, 2 mM EDTA, 5 mM MgCl2, pH 7.0), incubated at 37° C. for 10 min, then centrifuged at 23,000 g for 10 min. The P2 membrane was resuspended in 50 mL of buffer 2, incubated at 30° C. for 40 min, then centrifuged at 11,000 g for 15 min. The final wash-treated P2 pellet was resuspended in assay buffer 3 (50 mM Tris.HCl, 1 mM EDTA, 3 MM MgCl2, pH 7.4). Protein concentrations were determined by the method of Bradford (1976) using Coomassie brilliant blue dye (Bio-Rad, Richmond, Calif.) and BSA standards (bovine serum albumin, fatty acid free, Sigma Chemical Co., St. Louis, Mo.) prepared in assay buffer 3. The membrane preparation was divided into aliquots and stored at −80° C. For use in the binding assay, an aliquot of frozen membranes was thawed on ice and diluted to a concentration of ca. 0.2 mg/mL in assay buffer.
Methods—binding assay in brain membrane preparation. The methods for ligand binding are essentially those described by Devane et al. (1988) with the exception that we used a filtration assay. […] All cannabinoid analogs were prepared by suspension in buffer A from a 1-5 mg/mL ethanolic stock. Following incubation at 30° C. for 1 h, binding was terminated by vacuum filtration through pretreated filters in a 96-well sampling manifold (Millipore, Bedford, Mass.). Reaction vessels were washed at least 3 times with 1 mL of ice cold buffer B (50 mM Tris.HCl, 1 mg/mL BSA). The filter plates were air-dried and sealed on the bottom. Liquid scintillant was added to the wells and the top sealed. After incubating the plates in cocktail for at least 2 h, the radioactivity present was determined by liquid scintillation spectrometry. Assays were done in duplicate, and results represent the combined data of three to six independent experiments. All assays were performed in polypropylene test tubes. The GF/C glassfiber filter plates (Packard, Meriden, Conn.) were pretreated in buffer B for at least 1 h.
(§1) Data analysis. Saturation and displacement data were analyzed by unweighted nonlinear regression of receptor binding data. For displacement studies, curve-fitting and IC50 calculation were done with GraphPad Prism (GraphPad Software, Inc., San Diego, Calif.), which fits the data to one and two-site models and compares the two fits statistically. A similar approach was used for the analysis of isotherm data for calculation of Kd's. A two-site fit was accepted only if it was statistically significant (p<0.05) and the following results were not observed:
(§2) IC50 values were then converted to Ki values by reported methods (Cheng and Prusoff, 1973). The statistical evaluation of curve-fitting data allowed for a non-arbitrary conclusion based on the displacement data.

human CB1 receptor = target: T2, human CB1 receptor (Homo sapiens, UniProt P21554); assay: Radioligand displacement in human CB1 receptor-transfected cells (HEK-293); format: binding
T2 construct: expressed in transfected cells; host or cells: HEK-293
Protocol: Human CB1 receptor affinity. The alkyl amide analogs of the present invention were examined using transfected cell lines expressing the human CB1 receptor (Table 3).
Methods—binding assay in transfected cell lines. The methods used for performing binding assays in transfected cells expressing human CB1 or CB2 receptors are those used above. The CB1 receptor involved a HEK-293 expression system whereas the CB2 receptor was expressed in CHO-K1 cells. […] The incubations and separations were then performed as described above for rat brain membrane preparations.
as §1, §2

[1] = displacement of 3H-CP55940, whole rat brain, 3H-CP55940
[2] = displacement of 3H-SR141716A, whole rat brain, 3H-SR141716A
[3] = displacement of 3H-WIN55212-2, whole rat brain, 3H-WIN55212-2
[4] = displacement of 3H-CP55940, human CB1 transfected cells, 3H-CP55940, Table 5, parallel synthesis analogs, concentration assumes 100% yield
[5] = displacement of 3H-SR141716A, human CB1 transfected cells, 3H-SR141716A, Table 5, parallel synthesis analogs, concentration assumes 100% yield
[6] = displacement of 3H-WIN55212-2, human CB1 transfected cells, 3H-WIN55212-2, Table 5, parallel synthesis analogs, concentration assumes 100% yield
[7] = human CB1 transfected cells, 3H-CP55940, Table 5, parallel synthesis analogs
[8] = human CB1 transfected cells, 3H-SR141716A, Table 5, parallel synthesis analogs
[9] = human CB1 transfected cells, 3H-WIN55212-2, Table 5, parallel synthesis analogs

T1 sequence (P20272 whole entry): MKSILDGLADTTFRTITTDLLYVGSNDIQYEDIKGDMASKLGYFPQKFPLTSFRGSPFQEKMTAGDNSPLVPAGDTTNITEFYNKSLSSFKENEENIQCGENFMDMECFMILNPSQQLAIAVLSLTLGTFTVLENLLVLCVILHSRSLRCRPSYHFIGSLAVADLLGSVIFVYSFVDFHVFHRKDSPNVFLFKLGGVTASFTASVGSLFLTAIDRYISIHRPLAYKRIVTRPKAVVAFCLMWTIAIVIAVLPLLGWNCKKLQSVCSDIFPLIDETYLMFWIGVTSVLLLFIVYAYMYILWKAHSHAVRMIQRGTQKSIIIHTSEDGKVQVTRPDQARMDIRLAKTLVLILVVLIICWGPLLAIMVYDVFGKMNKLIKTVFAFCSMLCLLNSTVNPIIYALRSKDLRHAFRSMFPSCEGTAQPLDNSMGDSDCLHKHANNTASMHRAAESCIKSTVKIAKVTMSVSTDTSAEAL
T2 sequence (P21554 whole entry): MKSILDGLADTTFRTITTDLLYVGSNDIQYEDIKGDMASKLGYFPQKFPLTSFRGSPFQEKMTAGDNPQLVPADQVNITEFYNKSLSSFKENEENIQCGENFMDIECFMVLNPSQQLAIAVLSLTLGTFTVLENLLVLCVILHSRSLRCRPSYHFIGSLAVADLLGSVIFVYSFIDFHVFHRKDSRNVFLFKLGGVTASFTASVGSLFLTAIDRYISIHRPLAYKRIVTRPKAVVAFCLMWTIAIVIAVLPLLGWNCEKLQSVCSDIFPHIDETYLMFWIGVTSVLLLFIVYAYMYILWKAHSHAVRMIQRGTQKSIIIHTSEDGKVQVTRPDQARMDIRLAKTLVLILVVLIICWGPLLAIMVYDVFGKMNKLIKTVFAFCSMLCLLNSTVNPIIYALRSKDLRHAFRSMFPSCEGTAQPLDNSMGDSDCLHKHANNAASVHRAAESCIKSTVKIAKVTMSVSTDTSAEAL

Ki (CB1 receptor; [1]) [µM]	Ki (CB1 receptor; [2]) [µM]	Ki (CB1 receptor; [3]) [µM]	Max. Disp. %, 3H-CP55940 (CB1 receptor; whole rat brain, 3H-CP55940) [%]	Max. Disp. %, 3H-SR141716A (CB1 receptor; whole rat brain, 3H-SR141716A) [%]	Max. Disp. %, 3H-WIN55212-2 (CB1 receptor; whole rat brain, 3H-WIN55212-2) [%]	Ki (human CB1 receptor; [4]) [µM]	Ki (human CB1 receptor; [5]) [µM]	Ki (human CB1 receptor; [6]) [µM]	Max. Disp. %, 3H-CP55940 (human CB1 receptor; [7]) [%]	Max. Disp. %, 3H-SR141716A (human CB1 receptor; [8]) [%]	Max. Disp. %, 3H-WIN55212-2 (human CB1 receptor; [9]) [%]	Compound	Max. Disp. %, 3H-CP55940 (human CB1 receptor) [%]	Max. Disp. %, 3H-SR141716A (human CB1 receptor) [%]	Max. Disp. %, 3H-WIN55212-2 (human CB1 receptor) [%]	Ki (human CB1 receptor; displacement of 3H-CP55940) [µM]	Ki (human CB1 receptor; displacement of 3H-SR141716A) [µM]	Ki (human CB1 receptor; displacement of 3H-WIN55212-2) [µM]
0.194	0.0446	0.152	88.3	90.5	89.0	0.0577	0.021	0.166	66.3	90.4	74.6	Cc1c(C(=O)N2CCc3ccccc3C2)nn(-c2ccc(Cl)cc2Cl)c1-c1ccc(Cl)cc1 [AM-50]	–	–	–	–	–	–
0.0644	0.0228	0.0226	96.2	94.1	84.8	0.0398	0.0176	0.0309	86.3	98.7	96.8	COCC(C)NC(=O)c1nn(-c2ccc(Cl)cc2Cl)c(-c2ccc(Cl)cc2)c1C (centres unmarked) [AM-17]	–	–	–	–	–	–
0.00337	0.00281	0.0286	76.6	96.2	94.1	0.0132	0.00548	0.0332	76.8	93.6	91.5	Cc1c(C(=O)NC(C)CCC(C)C)nn(-c2ccc(Cl)cc2Cl)c1-c1ccc(Cl)cc1 (centres unmarked) [AKS-10262-8]	–	–	–	–	–	–
0.0199	0.00552	0.0103	90.1	96.0	81.1	0.0252	0.00328	0.0169	88.1	96.7	77.3	Cc1c(C(=O)NCCC(c2ccccc2)c2ccccc2)nn(-c2ccc(Cl)cc2Cl)c1-c1ccc(Cl)cc1 [AKS-10262-9]	–	–	–	–	–	–

Continued, molecule first:

Compound	Ki (CB1 receptor; [1]) [µM]	Ki (CB1 receptor; [2]) [µM]	Ki (CB1 receptor; [3]) [µM]	Max. Disp. %, 3H-CP55940 (CB1 receptor; whole rat brain, 3H-CP55940) [%]	Max. Disp. %, 3H-SR141716A (CB1 receptor; whole rat brain, 3H-SR141716A) [%]	Max. Disp. %, 3H-WIN55212-2 (CB1 receptor; whole rat brain, 3H-WIN55212-2) [%]	Ki (human CB1 receptor; [4]) [µM]	Ki (human CB1 receptor; [5]) [µM]	Ki (human CB1 receptor; [6]) [µM]	Max. Disp. %, 3H-CP55940 (human CB1 receptor; [7]) [%]	Max. Disp. %, 3H-SR141716A (human CB1 receptor; [8]) [%]	Max. Disp. %, 3H-WIN55212-2 (human CB1 receptor; [9]) [%]	Max. Disp. %, 3H-CP55940 (human CB1 receptor) [%]	Max. Disp. %, 3H-SR141716A (human CB1 receptor) [%]	Max. Disp. %, 3H-WIN55212-2 (human CB1 receptor) [%]	Ki (human CB1 receptor; displacement of 3H-CP55940) [µM]	Ki (human CB1 receptor; displacement of 3H-SR141716A) [µM]	Ki (human CB1 receptor; displacement of 3H-WIN55212-2) [µM]
CCCCCCC(C)NC(=O)c1nn(-c2ccc(Cl)cc2Cl)c(-c2ccc(Cl)cc2)c1C (centres unmarked) [AKS-10262-4]	0.0262	0.0108	0.0058	83.9	91.3	53.7	–	–	–	–	–	–	79.5	91.5	0.0	0.0263	0.0028	–
COc1ccc(CCNC(=O)c2nn(-c3ccc(Cl)cc3Cl)c(-c3ccc(Cl)cc3)c2C)cc1 [AM-29]	0.0926	0.0407	0.0247	78.8	95.1	82.7	0.0569	0.0161	0.0745	80.3	96.3	100	–	–	–	–	–	–
Cc1c(C(=O)NC(C)CCCC(C)C)nn(-c2ccc(Cl)cc2Cl)c1-c1ccc(Cl)cc1 (centres unmarked) [AKS-10262-7]	0.00897	0.00357	0.00576	89.6	95.1	87.7	–	–	–	–	–	–	82.5	93.7	67.9	0.00739	0.0021	0.0642
CCCCCC(CC)NC(=O)c1nn(-c2ccc(Cl)cc2Cl)c(-c2ccc(Cl)cc2)c1C (centres unmarked) [AKS-10262-5]	0.0196	0.0086	0.0258	89.5	95.7	85.1	0.0096	0.0038	0.0786	91.4	95.9	100	–	–	–	–	–	–
